Converted amounts (≈) assume the structure as drawn.
What was measured:
Assay type in all cases: functional
[1] = tested on: Candida albicans; assay: Antifungal activity against Candida albicans MCNH4 after 24 hrs in Yeast morphology agar medium by agar dilution method; conditions: MCNH4, 24 h
[2] = tested on: Saccharomyces cerevisiae; assay: Antifungal activity against Saccharomyces cerevisiae IAM 4500 after 24 hrs in Sabouraud agar medium by agar dilution method; conditions: IAM 4500, 24 h
[3] = tested on: Saccharomyces cerevisiae; assay: Antifungal activity against Saccharomyces cerevisiae IAM 4500 after 24 hrs in Yeast morphology agar medium by agar dilution method; conditions: IAM 4500, 24 h
[4] = tested on: Rhizopus arrhizus; assay: microbe, parasite or virus in culture; conditions: IAM 6052, 24 h
Description: Antifungal activity against Rhizopus arrhizus IAM 6052 after 24 hrs in Yeast morphology agar medium by agar dilution method

[5] = tested on: Meyerozyma guilliermondii; assay: Antifungal activity against Candida guilliermondii JTD after 24 hrs in Sabouraud agar medium by agar dilution method
[6] = tested on: Candida albicans; assay: microbe, parasite or virus in culture; conditions: NHL 4019, 24 h
Description: Antifungal activity against Candida albicans NHL 4019 after 24 hrs in Yeast morphology agar medium by agar dilution method

[7] = tested on: Candida albicans; assay: microbe, parasite or virus in culture; conditions: IAM 4888, 24 h
Description: Antifungal activity against Candida albicans IAM 4888 after 24 hrs in Sabouraud agar medium by agar dilution method

[8] = tested on: Nakaseomyces glabratus; assay: microbe, parasite or virus in culture; conditions: OUT 6189, 24 h
Description: Antifungal activity against Torulopsis glabrata OUT 6189 after 24 hrs in Sabouraud agar medium by agar dilution method

[9] = tested on: Candida albicans; assay: microbe, parasite or virus in culture; conditions: NHL 4019, 24 h; remark: listed apart in the source
Description: Antifungal activity against Candida albicans NHL 4019 after 24 hrs in Sabouraud agar medium by agar dilution method

[10] = tested on: Candida albicans; assay: Antifungal activity against Candida albicans MCNH1 after 24 hrs in Yeast morphology agar medium by agar dilution method; conditions: MCNH1, 24 h
[11] = tested on: Aspergillus niger; assay: Antifungal activity against Aspergillus niger NHL after 24 hrs in Sabouraud agar medium by agar dilution method
[12] = tested on: Candida tropicalis; assay: microbe, parasite or virus in culture; conditions: IAM 4924, 24 h
Description: Antifungal activity against Candida tropicalis IAM 4924 after 24 hrs in Sabouraud agar medium by agar dilution method

[13] = tested on: Candida albicans; assay: Antifungal activity against Candida albicans MCNH4 after 24 hrs in Sabouraud agar medium by agar dilution method; conditions: MCNH4, 24 h
[14] = tested on: Candida albicans; assay: Antifungal activity against Candida albicans MCNH1 after 24 hrs in Sabouraud agar medium by agar dilution method; conditions: MCNH1, 24 h
[15] = tested on: Pichia kudriavzevii; assay: microbe, parasite or virus in culture; conditions: IAM 4801, 24 h
Description: Antifungal activity against Candida krusei IAM 4801 after 24 hrs in Sabouraud agar medium by agar dilution method

[16] = tested on: Candida albicans; assay: Antifungal activity against Candida albicans MCNH3 after 24 hrs in Yeast morphology agar medium by agar dilution method; conditions: MCNH3, 24 h
[17] = tested on: Candida albicans; assay: Antifungal activity against Candida albicans MCNH3 after 24 hrs in Sabouraud agar medium by agar dilution method; conditions: MCNH3, 24 h
[18] = tested on: Rhizopus arrhizus; assay: microbe, parasite or virus in culture; conditions: IAM 6052, 24 h; remark: listed apart in the source
Description: Antifungal activity against Rhizopus arrhizus IAM 6052 after 24 hrs in Sabouraud agar medium by agar dilution method

[19] = tested on: Candida albicans; assay: Antifungal activity against Candida albicans MCNH2 after 24 hrs in Sabouraud agar medium by agar dilution method; conditions: MCNH2, 24 h
[20] = tested on: Saccharomyces cerevisiae; assay: microbe, parasite or virus in culture; conditions: IAM 4203, 24 h
Description: Antifungal activity against Saccharomyces cerevisiae IAM 4203 after 24 hrs in Sabouraud agar medium by agar dilution method

[21] = tested on: Candida albicans; assay: microbe, parasite or virus in culture; conditions: IAM 4888, 24 h; remark: listed apart in the source
Description: Antifungal activity against Candida albicans IAM 4888 after 24 hrs in Yeast morphology agar medium by agar dilution method

[22] = tested on: Saccharomyces cerevisiae; assay: microbe, parasite or virus in culture; conditions: IAM 4203, 24 h; remark: listed apart in the source
Description: Antifungal activity against Saccharomyces cerevisiae IAM 4203 after 24 hrs in Yeast morphology agar medium by agar dilution method

[23] = tested on: Pichia kudriavzevii; assay: microbe, parasite or virus in culture; conditions: IAM 4801, 24 h; remark: listed apart in the source
Description: Antifungal activity against Candida krusei IAM 4801 after 24 hrs in Yeast morphology agar medium by agar dilution method

[24] = tested on: Aspergillus fumigatus; assay: Antifungal activity against Aspergillus fumigatus IAM 2400 after 24 hrs in Sabouraud agar medium by agar dilution method; conditions: IAM 2400, 24 h
[25] = tested on: Candida albicans; assay: Antifungal activity against Candida albicans MCNH2 after 24 hrs in Yeast morphology agar medium by agar dilution method; conditions: MCNH2, 24 h
[26] = tested on: Candida tropicalis; assay: microbe, parasite or virus in culture; conditions: IAM 4924, 24 h; remark: listed apart in the source
Description: Antifungal activity against Candida tropicalis IAM 4924 after 24 hrs in Yeast morphology agar medium by agar dilution method

[27] = tested on: Aspergillus niger; assay: Antifungal activity against Aspergillus niger NHL after 24 hrs in Yeast morphology agar medium by agar dilution method
[28] = tested on: Meyerozyma guilliermondii; assay: Antifungal activity against Candida guilliermondii JTD after 24 hrs in Yeast morphology agar medium by agar dilution method
[29] = tested on: Aspergillus fumigatus; assay: Antifungal activity against Aspergillus fumigatus IAM 2400 after 24 hrs in Yeast morphology agar medium by agar dilution method; conditions: IAM 2400, 24 h

SMILES	MIC [1]	MIC [2]	MIC [3]	MIC [4]	MIC [5]	MIC [6]	MIC [7]	MIC [8]	MIC [9]	MIC [10]	MIC [11]	MIC [12]	MIC [13]	MIC [14]	MIC [15]	MIC [16]	MIC [17]	MIC [18]	MIC [19]	MIC [20]	also measured
CC1=CC[C@@]2(C)C[C@H](O)[C@@](O)(C(C)C)[C@@H]2CC1	1.56 µg/mL (≈ 6.54 µM)	> 100 µg/mL	> 100 µg/mL	> 100 µg/mL	> 100 µg/mL	0.4 µg/mL (≈ 1.68 µM)	12.5 µg/mL (≈ 52.4 µM)	50 µg/mL (≈ 210 µM)	0.8 µg/mL (≈ 3.36 µM)	3.13 µg/mL (≈ 13.1 µM)	100 µg/mL (≈ 420 µM)	> 100 µg/mL	6.25 µg/mL (≈ 26.2 µM)	6.25 µg/mL (≈ 26.2 µM)	25 µg/mL (≈ 105 µM)	3.13 µg/mL (≈ 13.1 µM)	12.5 µg/mL (≈ 52.4 µM)	> 100 µg/mL	3.13 µg/mL (≈ 13.1 µM)	3.13 µg/mL (≈ 13.1 µM)	MIC [21]: 1.56 µg/mL (≈ 6.54 µM); MIC [22]: 1.56 µg/mL (≈ 6.54 µM); MIC [23]: 25 µg/mL (≈ 105 µM); MIC [24]: 25 µg/mL (≈ 105 µM); MIC [25]: 1.56 µg/mL (≈ 6.54 µM); MIC [26]: 50 µg/mL (≈ 210 µM); MIC [27]: 12.5 µg/mL (≈ 52.4 µM); MIC [28]: > 100 µg/mL; MIC [29]: 12.5 µg/mL (≈ 52.4 µM)
Clc1ccc(COC(Cn2ccnc2)c2ccc(Cl)cc2Cl)c(Cl)c1.O=[N+]([O-])O (stereo not drawn) [MICONAZOLE NITRATE]	6.25 µg/mL	3.13 µg/mL	12.5 µg/mL	0.2 µg/mL	6.25 µg/mL	< 0.05 µg/mL	6.25 µg/mL	6.25 µg/mL	0.05 µg/mL	12.5 µg/mL	3.13 µg/mL	12.5 µg/mL	6.25 µg/mL	12.5 µg/mL	0.8 µg/mL	12.5 µg/mL	3.13 µg/mL	0.4 µg/mL	6.25 µg/mL	6.25 µg/mL	MIC [21]: 3.13 µg/mL; MIC [22]: 1.56 µg/mL; MIC [23]: 0.8 µg/mL; MIC [24]: 0.8 µg/mL; MIC [25]: 12.5 µg/mL; MIC [26]: 6.25 µg/mL; MIC [27]: 3.13 µg/mL; MIC [28]: 3.13 µg/mL; MIC [29]: 1.56 µg/mL

From ChEMBL document CHEMBL1150184, “CAF-603: a new antifungal carotane sesquiterpene. Isolation and structure elucidation” (1990)
